Results as given in patent publication US20040213766A1, “Compositions and methods for treating transplants” (priority 2002, published 2004).

Key:
[1] = test system: severed limbs; assay: Limb replantation after perfusion of amputated hind legs; format: in vivo; conditions: rat hind leg replantation, perfusion every 3 hours
Procedure: Hind legs were amputated from rats, and the major feed arteries for the severed limbs were cannulated for infusion of A-FUV, loaded in a 1 mM ATP solution. The limbs were perfused with A-FUV or control solutions (see Table 1) every 3 hours, or as deemed necessary by the change in tissue ATP levels. The arterial pressure of the limbs were monitored during infusion to decrease the chance of flow-induced injury, and to monitor the overall preservation of the severed limbs (higher perfusion pressures may indicate limb morbidity). Following the preservation period, the limbs were flushed with Ringers to remove traces of A-FUV. The limbs were then surgically reattached, and external indices of limb function after anastomoses were evaluated (limb color, evidence of microthrombi, coagulation, limb temperature). The animals prior to and following replantation received heparin to prevent hemostasis. In addition, animals were placed on antibiotic therapy to reduce infection. Control limbs were perfused with vehicle only, vehicle and ATP only, or vehicle and FUVs only.

[2] = test system: HUVEC; assay: 3H-ATP tracer incorporation into HUVEC and repeated washes; format: cell-based, human; conditions: cells washed repeatedly
Procedure: To confirm the carboxyfluorescein studies, ^3H-ATP was used as a tracer instead of the fluor. Vesicles were incubated with HUVEC for either 5, 10, 15, 30, 45, 60, 90, 120, or 240 minutes.

Nc1ncnc2c1ncn2[C@@H]1O[C@H](COP(=O)(O)OP(=O)(O)OP(=O)(O)O)[C@@H](O)[C@H]1O [ATP]
Limb outcome [1]: necrosis

Nc1ncnc2c1ncn2[C@@H]1O[C@H](COP(=O)(O)OP(=O)(O)OP(=O)(O)O)[C@@H](O)[C@H]1O [free ^3H-ATP, ^3H-ATP]
radioactivity of the cells after repeated washes [2]: complete loss of radioactivity
